The text below walks through data of article PMC12306498, “Microwave-assisted synthesis of tubulin assembly inhibitors as anticancer agents by aryl ring reversal and conjunctive approach” (RSC Medicinal Chemistry, 2025).

Values joined by “and” are separate entries in the source; they are usually repeats but may differ in a detail not shown here. Equal values may be shown once. Read-outs that look alike come from different tables or passages of the source. A value given as a limit tells only on which side of the number the result lay.

Test [1] has as its system tubulin. The test can be described thus: Inhibition of [3H]colchicine binding to tubulin. Conditions: for Colch. binding (% ± SD): inhibition of [3H]colchicine binding, tubulin, [3H]colchicine, inhibitor at 1, 5 and 5 μM. On the procedure: The reaction mixtures contained 1.0 μM tubulin, 5.0 μM [^3H]colchicine, and 5.0 or 1.0 μM inhibitor, as indicated, and were incubated for 10 min at 37 °C. Complete details were described previously.[36]

Test [2] concerns tubulin. The test can be described thus: Inhibition of tubulin polymerization (tubulin assembly, turbidity at 350 nm). Type of test: biochemical. Conditions: tubulin at 10 μM, read-out: Tubulin IC50 ± SD. As for the experimental part: The assembly reaction mixtures contained 0.8 M monosodium glutamate (pH 6.6 with HCl in a 2 M stock solution), 10 μM tubulin, 4% (v/v) DMSO, and varying concentrations of drug. Following a 15 min preincubation at 30 °C, samples were chilled on ice, GTP to 0.4 mM was added, and turbidity development was followed at 350 nm in a temperature-controlled recording spectrophotometer for 20 min at 30 °C. The extent of reaction was measured. Full experimental details were previously described.[35]

The subject of test [3] is MCF-7 human breast carcinoma cells. In words: MCF-7 cell growth inhibition. It is filed as cell-based. Conditions: read-out: MCF-7 IC50 ± SD.
The mark [4] stands for this setting: Homo sapiens, MCF7, cells grown for 96 h.
The mark [5] stands for this setting: Homo sapiens, MCF7, 96 h, cells grown for 96 h.

For `COc1ccc(/C=C\c2cc(OC)c(OC)c(OC)c2)cc1O` [CA4, combretastatin A-4, reference compound], the “Inhibition of [3H]colchicine binding” value in the test with tubulin [1] (inhibitor at 1 μM, tubulin 1 μM, [3H]colchicine 5 μM) is given as 78%.

By IC50 is commonly meant the concentration that inhibits the measured activity by half. For the compound `COc1cc(C(=O)c2cn(-c3ccccn3)cc2-c2ccc(C)cc2)cc(OC)c1OC` [Compound 3, (1-(Pyridin-2-yl)-4-(4-tolyl)-1H-pyrrol-3-yl)(3,4,5-trimethoxyphenyl)methanone], the IC50 was found to be 500 ± 100 nM in the test on tubulin [2] and 1500 ± 200 nM in test [3] (setting [4]). For the same compound, in the test with tubulin [1], the “Colch. binding (% ± SD)” value is 59 ± 0.9%.

Consider `COc1cc(C(=O)c2cn(-c3ccccn3)cc2-c2ccc(C(F)(F)F)cc2)cc(OC)c1OC` [Compound 5, (1-(Pyridin-2-yl)-4-(4-(trifluoromethyl)phenyl)-1H-pyrrol-3-yl)(3,4,5-trimethoxyphenyl)methanone], for which the concentration for half-maximal inhibition (IC50) with tubulin [2] was 2000 ± 100 nM; in test [3] (setting [4]), 652 ± 12.6 nM. Besides, in the test on tubulin [1], the “Colch. binding (% ± SD)” value was found to be 3.2 ± 5%.

As to `COc1cc(C(=O)c2cn(-c3ccccn3)cc2-c2ccc(Cl)cc2)cc(OC)c1OC` [Compound 6, (4-(4-Chlorophenyl)-1-(pyridin-2-yl)-1H-pyrrol-3-yl)(3,4,5-trimethoxyphenyl)methanone], the IC50 in the test with tubulin [2] is 520 ± 5 nM; in test [3] (setting [4]), 340 ± 60 nM. The “Colch. binding (% ± SD)” value with tubulin [1] stood at 66 ± 3%.

For the compound `COc1cc(C(=O)c2cn(-c3ccccn3)cc2-c2ccc(N(C)C)cc2)cc(OC)c1OC` [Compound 7, (4-(4-(Dimethylamino)phenyl)-1-(pyridin-2-yl)-1H-pyrrol-3-yl)(3,4,5-trimethoxyphenyl)methanone], the half-inhibitory concentration (IC50) was 430 ± 40 nM with tubulin [2] and 120 ± 40 nM in test [3] (setting [4]). The “Colch. binding (% ± SD)” value in the test on tubulin [1] is 72% and 72 ± 0.2%.

In the case of `COc1cc(OC)cc(-c2cn(-c3ccccn3)cc2C(=O)c2cc(OC)c(OC)c(OC)c2)c1` [Compound 8, (4-(3,5-Dimethoxyphenyl)-1-(pyridin-2-yl)-1H-pyrrol-3-yl)(3,4,5-trimethoxyphenyl)methanone], the figures for the IC50 (in the test with tubulin [2]; in test [3] (setting [4])) were 1600 ± 200 nM and 2200 ± 400 nM, respectively. Also, the “Colch. binding (% ± SD)” value in the test on tubulin [1] is 21 ± 5%.

With `COc1cc(C(=O)c2cn(-c3cccnc3)cc2-c2ccc(C)cc2)cc(OC)c1OC` [Compound 9, (1-(Pyridin-3-yl)-4-(4-tolyl)-1H-pyrrol-3-yl)(3,4,5-trimethoxyphenyl)methanone], the IC50 in the test with tubulin [2] worked out at 1900 ± 200 nM; in test [3] (setting [4]), 670 ± 200 nM. In addition, the “Colch. binding (% ± SD)” value in the test with tubulin [1] worked out at 20 ± 5%.

`COc1ccc(-c2cn(-c3cccnc3)cc2C(=O)c2cc(OC)c(OC)c(OC)c2)cc1` [Compound 10, (4-(4-Methoxyphenyl)-1-(pyridin-3-yl)-1H-pyrrol-3-yl)(3,4,5-trimethoxyphenyl)methanone]: the half-maximal inhibitory concentration (IC50) in the test on tubulin [2] worked out at 840 ± 20 nM; in test [3] (setting [4]), 758 ± 9.3 nM. In addition, the “Colch. binding (% ± SD)” value in the test with tubulin [1] is 29 ± 0.8%.

Consider `COc1cc(C(=O)c2cn(-c3cccnc3)cc2-c2ccc(Cl)cc2)cc(OC)c1OC` [Compound 11, (4-(4-Chlorophenyl)-1-(pyridin-3-yl)-1H-pyrrol-3-yl)(3,4,5-trimethoxyphenyl)methanone], for which the IC50 in the test with tubulin [2] was determined as 1500 ± 200 nM; in test [3] (setting [4]) it was 1500 ± 400 nM. The “Colch. binding (% ± SD)” value in the test on tubulin [1] is listed as 29 ± 4%.

Consider `COc1cc(C(=O)c2cn(-c3cccnc3)cc2-c2ccc(C(F)(F)F)cc2)cc(OC)c1OC` [Compound 12, (1-(Pyridin-3-yl)-4-(4-(trifluoromethyl)phenyl)-1H-pyrrol-3-yl)(3,4,5-trimethoxyphenyl)methanone], for which the IC50 in the test with tubulin [2] is above 20000 nM; in test [3] (setting [4]) it was 3900 ± 70 nM.

In the case of `COc1cc(C(=O)c2cn(-c3cccnc3)cc2-c2ccc(N(C)C)cc2)cc(OC)c1OC` [Compound 13, (4-(4-(Dimethylamino)phenyl)-1-(pyridin-3-yl)-1H-pyrrol-3-yl)(3,4,5-trimethoxyphenyl)methanone], the IC50 in the test on tubulin [2] turned out to be 3400 ± 300 nM; in test [3] (setting [4]), 1000 ± 100 nM. Further, the “Colch. binding (% ± SD)” value in the test on tubulin [1] is given as 9.6 ± 4%.

For `COc1cc(C(=O)c2cn(-c3ncccn3)cc2-c2ccc(C)cc2)cc(OC)c1OC` [Compound 14, (1-(Pyrimidin-2-yl)-4-(4-tolyl)-1H-pyrrol-3-yl)(3,4,5-trimethoxyphenyl)methanone], the IC50 in the test on tubulin [2] worked out at 1300 ± 40 nM; in test [3] (setting [4]), 170 ± 50 nM. Further, in the test with tubulin [1], the “Colch. binding (% ± SD)” value came to 54 ± 3%.

On to `COc1ccc(-c2cn(-c3ncccn3)cc2C(=O)c2cc(OC)c(OC)c(OC)c2)cc1` [Compound 15, (4-(4-Methoxyphenyl)-1-(pyrimidin-2-yl)-1H-pyrrol-3-yl)(3,4,5-trimethoxyphenyl)methanone], for which the 50% inhibitory concentration (IC50) in the test with tubulin [2] turned out to be 1100 ± 100 nM; in test [3] (setting [4]) it was 95 ± 20 nM. Further, in the test on tubulin [1], the “Colch. binding (% ± SD)” value is given as 65 ± 5%.

For the compound `COc1cc(OC)cc(-c2cn(-c3ncccn3)cc2C(=O)c2cc(OC)c(OC)c(OC)c2)c1` [Compound 16, (4-(3,5-Dimethoxyphenyl)-1-(pyrimidin-2-yl)-1H-pyrrol-3-yl)(3,4,5-trimethoxyphenyl)methanone], the concentration for half-maximal inhibition (IC50) was 1100 ± 60 nM in the test with tubulin [2] and 780 ± 40 nM in test [3] (setting [4]). In the test with tubulin [1], the “Colch. binding (% ± SD)” value worked out at 25 ± 5%.

For the compound `COc1cc(C(=O)c2cn(-c3ncccn3)cc2-c2cc(OC)c(OC)c(OC)c2)cc(OC)c1OC` [Compound 17, (1-(Pyrimidin-2-yl)-4-(3,4,5-trimethoxyphenyl)-1H-pyrrol-3-yl)(3,4,5-trimethoxyphenyl)methanone], the figures for the IC50 (in the test with tubulin [2]; in test [3] (setting [4])) were above 20000 nM and above 5000 nM, respectively.

With `COc1cc(C(=O)c2cn(-c3ncccn3)cc2-c2ccc(F)cc2)cc(OC)c1OC` [Compound 18, (4-(4-Fluorophenyl)-1-(pyrimidin-2-yl)-1H-pyrrol-3-yl)(3,4,5-trimethoxyphenyl)methanone], the half-inhibitory concentration (IC50) was 2400 ± 80 nM in the test with tubulin [2] and 150 ± 7 nM in test [3] (setting [4]). The “Colch. binding (% ± SD)” value with tubulin [1] was 70 ± 1%.

As for `COc1cc(C(=O)c2cn(-c3ncccn3)cc2-c2ccc(C(F)(F)F)cc2)cc(OC)c1OC` [Compound 19, (1-(Pyrimidin-2-yl)-4-(4-(trifluoromethyl)phenyl)-1H-pyrrol-3-yl)(3,4,5-trimethoxyphenyl)methanone], the values for the half-maximal inhibitory concentration (IC50) (with tubulin [2]; in test [3] (setting [4])) were 2800 ± 100 nM and 530 nM, respectively. The “Colch. binding (% ± SD)” value in the test with tubulin [1] came to 18 ± 4%.

On to `COc1cc(C(=O)c2cn(-c3ncccn3)cc2-c2ccc(Cl)cc2)cc(OC)c1OC` [Compound 20, (4-(4-Chlorophenyl)-1-(pyrimidin-2-yl)-1H-pyrrol-3-yl)(3,4,5-trimethoxyphenyl)methanone], for which the IC50 was found to be 760 ± 100 nM in the test with tubulin [2] and 68 ± 10 nM in test [3] (setting [5]). Moreover, the “Colch. binding (% ± SD)” value in the test on tubulin [1] is recorded as 69 ± 4%.

As for `COc1cc(C(=O)c2cn(-c3ncccn3)cc2-c2ccc([N+](=O)[O-])cc2)cc(OC)c1OC` [Compound 21, (4-(4-Nitrophenyl)-1-(pyrimidin-2-yl)-1H-pyrrol-3-yl)(3,4,5-trimethoxyphenyl)methanone], the IC50 worked out at 1300 ± 200 nM with tubulin [2] and 450 ± 100 nM in test [3] (setting [4]). Besides, the “Colch. binding (% ± SD)” value in the test on tubulin [1] is 34 ± 1%.

For the compound `COc1cc(C(=O)c2cn(-c3ncccn3)cc2-c2ccc(N(C)C)cc2)cc(OC)c1OC` [Compound 22, (4-(4-(Dimethylamino)phenyl)-1-(pyrimidin-2-yl)-1H-pyrrol-3-yl)(3,4,5-trimethoxyphenyl)methanone], the IC50 in the test on tubulin [2] is 680 ± 100 nM; in test [3] (setting [4]) it was 10 nM. In addition, the “Colch. binding (% ± SD)” value in the test on tubulin [1] was determined as 80 ± 0.2%.

Consider `COc1cc(C(=O)c2cn(-c3ncccn3)cc2/C=C/c2ccccc2)cc(OC)c1OC` [Compound 23, (E)-(1-(pyrimidin-2-yl)-4-styryl-1H-pyrrol-3-yl)(3,4,5-trimethoxyphenyl)methanone], for which the results for the concentration for half-maximal inhibition (IC50) (in the test on tubulin [2]; in test [3] (setting [4])) were 770 ± 30 nM and 270 ± 10 nM, respectively. Besides, the “Colch. binding (% ± SD)” value in the test with tubulin [1] was determined as 65 ± 5%.

For the compound `COc1cc(C(=O)c2cn(-c3ncccn3)cc2-c2ccc(N3CCCCC3)cc2)cc(OC)c1OC` [Compound 24, (4-(4-(Piperidin-1-yl)phenyl)-1-(pyrimidin-2-yl)-1H-pyrrol-3-yl)(3,4,5-trimethoxyphenyl)methanone], the IC50 was determined as 630 ± 40 nM in the test with tubulin [2] and 112 ± 7.7 nM in test [3] (setting [4]). The “Colch. binding (% ± SD)” value in the test on tubulin [1] came out at 35 ± 2%.

Regarding `COc1cc(C(=O)c2cn(-c3ccccn3)c3ccc(Cl)cc23)cc(OC)c1OC` [Compound 25, (5-Chloro-1-(pyridin-2-yl)-1H-indol-3-yl)(3,4,5-trimethoxyphenyl)methanone], the IC50 with tubulin [2] came out at 1500 ± 300 nM; in test [3] (setting [5]), 42 nM; in test [3] (cells grown for 96 h), 41.7 ± 2.6 nM. The “Colch. binding (% ± SD)” value with tubulin [1] stood at 36 ± 4%.

In the case of `COc1cc(C(=O)c2cn(-c3cccnc3)c3ccc(Cl)cc23)cc(OC)c1OC` [Compound 26, (5-Chloro-1-(pyridin-3-yl)-1H-indol-3-yl)(3,4,5-trimethoxyphenyl)methanone], the figures for the half-maximal inhibitory concentration (IC50) (in the test on tubulin [2]; in test [3] (setting [5])) were 1500 ± 300 nM and 306 ± 13.4 nM, respectively. For the same compound, the “Colch. binding (% ± SD)” value in the test with tubulin [1] is 23 ± 4%.

With `COc1cc(C(=O)c2cn(-c3ncccn3)c3ccc(Cl)cc23)cc(OC)c1OC` [Compound 27, (5-Chloro-1-(pyrimidin-2-yl)-1H-indol-3-yl)(3,4,5-trimethoxyphenyl)methanone], the IC50 in the test on tubulin [2] was found to be 1000 ± 90 nM; in test [3] (setting [5]) it was 77 ± 10 nM. In addition, the “Colch. binding (% ± SD)” value with tubulin [1] is listed as 34 ± 5%.

As for `COc1cc(C(=O)c2cn(-c3ncccn3)c3ccc(F)cc23)cc(OC)c1OC` [Compound 28, (5-Fluoro-1-(pyrimidin-2-yl)-1H-indol-3-yl)(3,4,5-trimethoxyphenyl)methanone], the IC50 in the test on tubulin [2] stood at 590 ± 100 nM; in test [3] (setting [5]) it was 73 ± 4 nM. For the same compound, the “Colch. binding (% ± SD)” value in the test with tubulin [1] turned out to be 45 ± 0.8%.
